The source of these data is US12281122B1, “PI3K inhibitors” (Cogent Biosciences, Inc., priority 2023, dated 2025).

Assay [1] relates to SKBR3 (PI3Kα-Wild Type) cell line. Kind of assay: HTRF phospho-AKT(S473) cell assay in SKBR3 cells. Conditions: Homo sapiens, SK-BR-3; SKBR3 (PI3Kα-Wild Type) cells, HTRF phospho-AKT(S473), 2 hours compound incubation, PDGF-BB stimulated. It counts as cell-based, human. Put shortly: (§1)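 HTRF read-out of phospho-AKT(S473) in lysates gave IC50 values after 2 h compound exposure at 37° C. Dose series was 12 points at 1:3, topping at 5 μM for T47D and 10 μM for SKBR3. Only SKBR3 received 70 ng/ml PDGF-BB during the last 15 minutes.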
For orientation: Time-resolved FRET reads energy transfer from a long-lived donor to a nearby acceptor.

Assay [2] has as its system T47D (PI3Kα-H1047R) cell line. Kind of assay: HTRF phospho-AKT(S473) cell assay in T47D cells. The class given is cell-based, human. Conditions: Homo sapiens; T47D (PI3Kα-H1047R) cells, HTRF phospho-AKT(S473), 2 hours compound incubation. In short, it runs like this: as §1
Assay [3] concerns the target PI3Kα H1047R (Homo sapiens, UniProt P42336, H1047R). Kind of assay: PI3Kα H1047R enzyme assay (Transcreener ADP2 TR-FRET Red Assay). The class given is biochemical. The conditions noted are these: purified recombinant full-length protein; 2 hours pre-incubation with compound. Put shortly:
(§2)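 Purified recombinant full-length enzymes pre-incubated 2 h at room temperature with compounds (11-point 1:3 dilutions, typically 50,000–0.85 nM), then started with ATP/PI(4,5)P2 diC8 and run 60 min at room temperature in 40 mM HEPES pH 7.5, 20 mM NaCl, 25 mM MgCl2, 0.01% Triton X-100. ADP detected by TR-FRET 665/615 ratio; IC50 from four-parameter fit of percent of control.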

In assay [4] the target is PI3Kα (Homo sapiens, UniProt P42336). Kind of assay: PI3Kα enzyme assay (Transcreener ADP2 TR-FRET Red Assay). The class given is biochemical. Conditions: purified recombinant full-length protein; 2 hours pre-incubation with compound; read-out: PI3Kα WT IC50. In short, it runs like this: as §2
Chain of PI3Kα (P42336 whole entry): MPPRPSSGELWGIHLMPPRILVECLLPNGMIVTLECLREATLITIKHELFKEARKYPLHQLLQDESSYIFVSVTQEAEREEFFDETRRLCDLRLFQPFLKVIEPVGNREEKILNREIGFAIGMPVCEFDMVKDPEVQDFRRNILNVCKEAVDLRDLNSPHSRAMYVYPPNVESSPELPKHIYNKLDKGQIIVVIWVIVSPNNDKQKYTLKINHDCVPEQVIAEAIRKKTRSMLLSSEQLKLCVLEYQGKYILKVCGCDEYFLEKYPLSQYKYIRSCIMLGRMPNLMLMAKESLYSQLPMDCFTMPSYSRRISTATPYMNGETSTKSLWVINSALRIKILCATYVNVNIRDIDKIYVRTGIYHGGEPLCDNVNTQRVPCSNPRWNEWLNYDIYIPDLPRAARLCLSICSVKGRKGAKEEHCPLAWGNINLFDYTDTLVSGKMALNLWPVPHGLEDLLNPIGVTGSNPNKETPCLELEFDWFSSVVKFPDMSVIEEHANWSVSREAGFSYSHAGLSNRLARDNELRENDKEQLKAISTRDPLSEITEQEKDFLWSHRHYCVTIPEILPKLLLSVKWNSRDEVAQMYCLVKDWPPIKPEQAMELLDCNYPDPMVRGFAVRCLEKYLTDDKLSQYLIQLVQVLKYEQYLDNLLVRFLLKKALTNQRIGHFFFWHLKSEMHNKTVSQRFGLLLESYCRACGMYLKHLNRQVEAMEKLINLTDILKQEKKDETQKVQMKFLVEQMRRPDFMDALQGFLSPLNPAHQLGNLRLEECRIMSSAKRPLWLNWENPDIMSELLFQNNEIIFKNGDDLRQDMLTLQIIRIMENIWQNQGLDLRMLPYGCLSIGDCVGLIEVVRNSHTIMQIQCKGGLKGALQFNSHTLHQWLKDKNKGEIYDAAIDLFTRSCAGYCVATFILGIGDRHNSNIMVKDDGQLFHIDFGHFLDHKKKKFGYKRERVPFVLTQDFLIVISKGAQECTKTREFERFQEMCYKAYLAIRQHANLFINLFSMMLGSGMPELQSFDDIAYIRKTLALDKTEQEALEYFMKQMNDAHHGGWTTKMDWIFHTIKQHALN
Chain of PI3Kα (P27986 2-724 partner): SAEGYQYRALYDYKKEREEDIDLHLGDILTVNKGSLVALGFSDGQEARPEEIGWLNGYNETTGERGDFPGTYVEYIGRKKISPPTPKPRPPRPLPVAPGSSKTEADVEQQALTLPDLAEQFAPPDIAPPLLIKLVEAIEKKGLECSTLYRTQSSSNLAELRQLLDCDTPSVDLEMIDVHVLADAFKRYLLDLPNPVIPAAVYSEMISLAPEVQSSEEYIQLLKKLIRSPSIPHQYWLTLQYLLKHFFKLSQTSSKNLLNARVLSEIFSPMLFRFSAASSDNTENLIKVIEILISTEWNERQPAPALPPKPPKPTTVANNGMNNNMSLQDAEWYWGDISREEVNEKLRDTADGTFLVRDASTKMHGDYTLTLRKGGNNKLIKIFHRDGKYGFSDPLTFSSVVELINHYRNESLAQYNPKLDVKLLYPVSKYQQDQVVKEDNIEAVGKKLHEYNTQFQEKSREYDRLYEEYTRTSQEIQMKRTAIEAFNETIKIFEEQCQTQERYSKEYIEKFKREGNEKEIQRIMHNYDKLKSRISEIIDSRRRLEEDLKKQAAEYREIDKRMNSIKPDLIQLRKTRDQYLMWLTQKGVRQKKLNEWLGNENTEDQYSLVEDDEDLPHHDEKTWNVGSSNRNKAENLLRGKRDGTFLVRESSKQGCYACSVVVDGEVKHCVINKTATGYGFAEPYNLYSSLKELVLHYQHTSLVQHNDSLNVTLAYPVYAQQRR

Molecules are shown by their SMILES.

The IC50 is the midpoint of a concentration-inhibition curve.

Chain of PI3Kα H1047R (P42336 whole entry H1047R): as the sequence (P42336 whole entry) above, with H1047R counted along it
Chain of PI3Kα H1047R (P27986 2-724 partner): as the sequence (P27986 2-724 partner) above

With `Cc1cc([C@@H](C)Nc2ccc(Cl)nc2C(=O)NS(C)(=O)=O)c2nc(N3CC4(COC4)C3)n(C)c(=O)c2c1` [Compound 46, (R)-6-chloro-3-((1-(3,6-dimethyl-4-oxo-2-(2-oxa-6-azaspiro[3.3]heptan-6-yl)-3,4-dihydroquinazolin-8-yl)ethyl)amino)-N-(methylsulfonyl) picolinamide], the 50% inhibitory concentration (IC50) in assay [1] was 1 to 5 µM; in assay [2], 0.5 to 1 µM; in assay [3], ≥ 1 µM; in assay [4], ≥ 1 µM.

For `Cc1cc([C@@H](C)Nc2ccc(Cl)nc2C(=O)NS(C)(=O)=O)c2nc(N3Cc4cnn(CC5CC5)c4C3)n(C)c(=O)c2c1` [Compound 47, (R)-6-chloro-3-((1-(2-(1-(cyclopropylmethyl)-4,6-dihydropyrrolo[3,4-c]pyrazol-5(1H)-yl)-3,6-dimethyl-4-oxo-3,4-dihydroquinazolin-8-yl)ethyl)amino)-N-(methylsulfonyl) picolinamide], the IC50 in assay [1] is 1 to 5 µM; in assay [2] it was < 0.25 µM; in assay [3], < 0.1 µM; in assay [4], 0.5 to 1 µM.

`Cc1cc([C@@H](C)Nc2ccc(Cl)nc2C(=O)NS(C)(=O)=O)c2nc(N(C)Cc3cnn(C)c3)n(C)c(=O)c2c1` [Compound 48, (R)-6-chloro-3-((1-(3,6-dimethyl-2-(methyl((1-methyl-1H-pyrazol-4-yl)methyl)amino)-4-oxo-3,4-dihydroquinazolin-8-yl)ethyl)amino)-N-(methylsulfonyl) picolinamide]: the IC50 in assay [1] was 1 to 5 µM; in assay [2], < 0.25 µM; in assay [3], 0.1 to 0.25 µM; in assay [4], ≥ 1 µM.

For `Cc1cc([C@@H](C)Nc2ccc(Cl)nc2C(=O)NS(C)(=O)=O)c2nc(N3Cc4cnn(C(C)C)c4C3)n(C)c(=O)c2c1` [Compound 49, (R)-6-chloro-3-((1-(2-(1-isopropyl-4,6-dihydropyrrolo[3,4-c]pyrazol-5(1H)-yl)-3,6-dimethyl-4-oxo-3,4-dihydroquinazolin-8-yl)ethyl)amino)-N-(methylsulfonyl) picolinamide], the IC50 was 1 to 5 µM in assay [1], < 0.25 µM in assay [2], 0.1 to 0.25 µM in assay [3] and ≥ 1 µM in assay [4].

On to `Cc1cc([C@@H](C)Nc2ccc(Cl)nc2C(=O)NS(C)(=O)=O)c2nc(OCc3ccccc3)n(C)c(=O)c2c1` [Compound 50, (R)-3-((1-(2-(benzyloxy)-3,6-dimethyl-4-oxo-3,4-dihydroquinazolin-8-yl)ethyl)amino)-6-chloro-N-(methylsulfonyl) picolinamide], for which the IC50 in assay [1] is 1 to 5 µM; in assay [2] it was 1 to 5 µM; in assay [3], 0.25 to 0.5 µM; in assay [4], ≥ 1 µM.

`Cc1cc([C@@H](C)Nc2ccc(Cl)nc2C(=O)NS(C)(=O)=O)c2nc(OCC3CC3)n(C)c(=O)c2c1` [Compound 51, (R)-6-chloro-3-((1-(2-(cyclopropylmethoxy)-3,6-dimethyl-4-oxo-3,4-dihydroquinazolin-8-yl)ethyl)amino)-N-(methylsulfonyl) picolinamide]: the concentration for half-maximal inhibition (IC50) in assay [1] was 0.5 to 1 µM; in assay [2] it was < 0.25 µM; in assay [3] it was < 0.1 µM; in assay [4] it was ≥ 1 µM.

As for `Cc1cc([C@@H](C)Nc2ccc(Cl)nc2C(=O)NS(C)(=O)=O)c2nc(OC3CCC3)n(C)c(=O)c2c1` [Compound 52, (R)-6-chloro-3-((1-(2-cyclobutoxy-3,6-dimethyl-4-oxo-3,4-dihydroquinazolin-8-yl)ethyl)amino)-N-(methylsulfonyl) picolinamide], the IC50 in assay [1] was 1 to 5 µM; in assay [2], 0.5 to 1 µM; in assay [3] it was 0.1 to 0.25 µM; in assay [4] it was ≥ 1 µM.

`Cc1cc([C@@H](C)Nc2ccc(Cl)nc2C(=O)NS(C)(=O)=O)c2nc(N3Cc4cnn(CC(F)(F)F)c4C3)n(C)c(=O)c2c1` [Compound 53, (R)-6-chloro-3-((1-(3,6-dimethyl-4-oxo-2-(1-(2,2,2-trifluoroethyl)-4,6-dihydropyrrolo[3,4-c]pyrazol-5(1H)-yl)-3,4-dihydroquinazolin-8-yl)ethyl)amino)-N-(methylsulfonyl) picolinamide]: the 50% inhibitory concentration (IC50) is 1 to 5 µM in assay [1], < 0.25 µM in assay [2], 0.1 to 0.25 µM in assay [3] and ≥ 1 µM in assay [4].

Turning to `Cc1cc([C@@H](C)Nc2ccc(Cl)nc2C(=O)NS(C)(=O)=O)c2nc(N3Cc4cn(CC(F)(F)F)nc4C3)n(C)c(=O)c2c1` [Compound 54, (R)-6-chloro-3-((1-(3,6-dimethyl-4-oxo-2-(2-(2,2,2-trifluoroethyl)-2,6-dihydropyrrolo[3,4-c]pyrazol-5(4H)-yl)-3,4-dihydroquinazolin-8-yl)ethyl)amino)-N-(methylsulfonyl) picolinamide], the IC50 in assay [1] was 1 to 5 µM; in assay [2], < 0.25 µM; in assay [3], 0.1 to 0.25 µM; in assay [4] it was ≥ 1 µM.

On to `Cc1cc([C@@H](C)Nc2ccc(Cl)nc2C(=O)NS(C)(=O)=O)c2nc(N3CCOC[C@H]3C)n(C)c(=O)c2c1` [Compound 55, 6-chloro-3-(((R)-1-(3,6-dimethyl-2-((R)-3-methylmorpholino)-4-oxo-3,4-dihydroquinazolin-8-yl)ethyl)amino)-N-(methylsulfonyl) picolinamide], for which the IC50 is 1 to 5 µM in assay [1], < 0.25 µM in assay [2], 0.5 to 1 µM in assay [3] and ≥ 1 µM in assay [4].

As to `Cc1cc([C@@H](C)Nc2ccc(Cl)nc2C(=O)NS(C)(=O)=O)c2nc(OCc3cccnc3)n(C)c(=O)c2c1` [Compound 56, (R)-6-chloro-3-((1-(3,6-dimethyl-4-oxo-2-(pyridin-3-ylmethoxy)-3,4-dihydroquinazolin-8-yl)ethyl)amino)-N-(methylsulfonyl) picolinamide], the IC50 is 1 to 5 µM in assay [1], 0.25 to 0.5 µM in assay [2], ≥ 1 µM in assay [3] and ≥ 1 µM in assay [4].

For the compound `Cc1cc([C@@H](C)Nc2ccc(Cl)nc2C(=O)NS(C)(=O)=O)c2nc(N3CCC(F)(F)CC3)n(C)c(=O)c2c1` [Compound 57, (R)-6-chloro-3-((1-(2-(4,4-difluoropiperidin-1-yl)-3,6-dimethyl-4-oxo-3,4-dihydroquinazolin-8-yl)ethyl)amino)-N-(methylsulfonyl) picolinamide], the IC50 is 1 to 5 µM in assay [1], 0.5 to 1 µM in assay [2], ≥ 1 µM in assay [3] and ≥ 1 µM in assay [4].

Take `Cc1cc([C@@H](C)Nc2cccnc2C(=O)NS(C)(=O)=O)c2nc(N3Cc4ccc(F)cc4C3)n(C)c(=O)c2c1` [Compound 58, (R)-3-((1-(2-(5-fluoroisoindolin-2-yl)-3,6-dimethyl-4-oxo-3,4-dihydroquinazolin-8-yl)ethyl)amino)-N-(methylsulfonyl) picolinamide]: the IC50 in assay [1] is 1 to 5 µM; in assay [2] it was 0.25 to 0.5 µM; in assay [3], ≥ 1 µM; in assay [4], ≥ 1 µM.

In the case of `C[C@@H](Nc1cccnc1C(=O)NS(C)(=O)=O)c1cccc2c(=O)n(C)c(N3Cc4ccc(F)cc4C3)nc12` [Compound 59, (R)-3-((1-(2-(5-fluoroisoindolin-2-yl)-3-methyl-4-oxo-3,4-dihydroquinazolin-8-yl)ethyl)amino)-N-(methylsulfonyl) picolinamide], the concentration for half-maximal inhibition (IC50) in assay [1] was ≥ 5 µM; in assay [2], 1 to 5 µM; in assay [3], ≥ 1 µM; in assay [4], ≥ 1 µM.

For the compound `C[C@@H](Nc1cccnc1C(=O)NS(C)(=O)=O)c1cc(F)cc2c(=O)n(C)c(N3Cc4ccc(F)cc4C3)nc12` [Compound 60, (R)-3-((1-(6-fluoro-2-(5-fluoro-isoindolin-2-yl)-3-methyl-4-oxo-3,4-dihydroquinazolin-8-yl)ethyl)amino)-N-(methylsulfonyl) picolinamide], the IC50 is 1 to 5 µM in assay [1], 1 to 5 µM in assay [2], ≥ 1 µM in assay [3] and ≥ 1 µM in assay [4].

As for `Cc1ccc(N[C@H](C)c2cc(F)cc3c(=O)n(C)c(N4Cc5ccc(F)cc5C4)nc23)c(C(=O)NS(C)(=O)=O)n1` [Compound 61, (R)-3-((1-(6-fluoro-2-(5-fluoroisoindolin-2-yl)-3-methyl-4-oxo-3,4-dihydro-quinazolin-8-yl)ethyl)amino)-6-methyl-N-(methylsulfonyl) picolinamide], the IC50 in assay [1] is ≥ 5 µM; in assay [2] it was 1 to 5 µM; in assay [3] it was ≥ 1 µM; in assay [4], ≥ 1 µM.

`Cc1cc([C@@H](C)Nc2ccc(F)cc2C(=O)NS(C)(=O)=O)c2nc(N3CCC(F)(F)CC3)n(C)c(=O)c2c1` [Compound 62, (R)-2-((1-(2-(4,4-difluoropiperidin-1-yl)-3,6-dimethyl-4-oxo-3,4-dihydroquinazolin-8-yl)ethyl)amino)-5-fluoro-N-(methyl-sulfonyl)benzamide]: the IC50 was 1 to 5 µM in assay [1], 1 to 5 µM in assay [2], < 0.1 µM in assay [3] and ≥ 1 µM in assay [4].
